Columns and labels:
[1] = biological target: T1, potassium ion channel hERG (human Ether-á-go-go-Related Gene) (Homo sapiens, UniProt Q12809); assay: Assay 5 - hERG assay (SyncroPatch 384PE patch clamp, CHO cells); type: cell-based; details: geometric mean, CHO cells over-expressing hERG, read-out: Assay 5 (hERG Hu CHO IF EPh CR-Syncro) GMean IC50
T1 construct: expressed in transfected cells; host or cells: Chinese hamster ovary K1 (CHO)
Method: Assay 5—hERG Assay (Human Ether-á-go-go-Related Gene)
This assay (human Ether-á-go-go-Related Gene) measures activity of the compounds at the potassium ion channel hERG (human Ether-á-go-go-Related Gene).
Experiments were performed on the SyncroPatch 384PE high throughput patch clamp platform at room temperature and medium resistance chips with 4 patch holes per site. Chinese hamster ovary K1 (CHO) cell lines over-expressing the ion channel of choice (hERG) were used in assay-ready format and kept in liquid nitrogen or were used from live culture. Cells were either thawed and diluted in HBSS or were detached from flasks and resuspended in HBSS. HBSS comprised 140 mM NaCl, 4 mM KCl, 10 mM HEPES and 5 mM Glucose (pH 7.4). The internal patch clamp solution was KF 120 mM, KCl 20 mM, HEPES 10 mM, EGTA 10 mM, and 25 μM Escin (pH 7.2). After the sealing process was complete, the external solution was exchanged for external patch clamp solution comprising NaCl 80 mM, KCl 4 mM, HEPES 10 mM, CaCl2 2 mM, MgCl2 1 mM, glucose 5 mM, and NMDG 60 mM (pH 7.4). All solutions were stored at room temperature, except Escin, which was stored at 4° C. All test compounds were dispensed in greiner-bio 384 well plates and tested in a 6 point cumulative assay (final DMSO concentration 0.33%). Only wells that passed previously agreed acceptance criteria for this platform were used in this analysis (30 MegaOhm seal resistance, Z prime>0.4 and current size>0.2 nA).

[2] = biological target: T2, PCSK9 (Homo sapiens, UniProt Q8NBP7, G670E/V474I); assay: biochemical
Target sequence in this assay (Q8NBP7 with tags, fused parts or gaps V474I/G670E): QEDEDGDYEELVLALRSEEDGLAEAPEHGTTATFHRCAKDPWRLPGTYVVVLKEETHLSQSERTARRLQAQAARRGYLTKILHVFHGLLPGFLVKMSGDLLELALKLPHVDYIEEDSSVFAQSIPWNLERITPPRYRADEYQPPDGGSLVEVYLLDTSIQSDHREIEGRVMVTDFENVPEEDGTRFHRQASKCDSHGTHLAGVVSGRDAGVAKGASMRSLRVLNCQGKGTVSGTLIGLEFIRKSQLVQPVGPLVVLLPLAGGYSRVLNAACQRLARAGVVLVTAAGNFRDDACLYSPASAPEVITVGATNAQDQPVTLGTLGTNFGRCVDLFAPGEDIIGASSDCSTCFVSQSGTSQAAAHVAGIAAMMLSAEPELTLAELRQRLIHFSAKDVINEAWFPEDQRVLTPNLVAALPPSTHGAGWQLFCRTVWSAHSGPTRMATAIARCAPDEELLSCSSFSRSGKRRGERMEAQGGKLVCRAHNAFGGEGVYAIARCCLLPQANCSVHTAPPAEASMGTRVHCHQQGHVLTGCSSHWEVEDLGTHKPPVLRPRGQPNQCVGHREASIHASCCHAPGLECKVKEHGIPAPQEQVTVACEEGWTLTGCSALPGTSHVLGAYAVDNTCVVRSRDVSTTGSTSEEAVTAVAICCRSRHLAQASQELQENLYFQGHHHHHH

[3] = biological target: GSK3b (Glycogen synthase kinase-3 beta) (Homo sapiens, UniProt P49841); assay: Assay 6 - GSK3b assay (ThermoFisher, FRET Z-Lyte); type: biochemical; details: geometric mean; ATP Conc: 10.000 μM; read-out: Assay 6 (GSK3B FRET-Z-Lyte CR) GMean IC50 (μM) ATP Conc: 10.000
Method: This assay measures the activity of the compounds at GSK3b (Glycogen synthase kinase-3 beta).
The test compounds were screened in 1% DMSO (final) in the well. For 10-point titrations, 3-fold serial dilutions are conducted from the starting concentration of 10 μM.
• Bar-coded Corning, low volume NBS, black 384-well plate • 1. 2.5 μL—4× Test Compound or 100 nL 100× plus 2.4 μL kinase buffer • 2. 5 μL—2× Peptide/Kinase Mixture • 3. 2.5 μL—4× ATP Solution • 4. 30-second plate shake • 5. 60-minute Kinase Reaction incubation at room temperature • 6. 5 μL—Development Reagent Solution • 7. 30-second plate shake • 8. 60-minute Development Reaction incubation at room temperature • 9. Read on fluorescence plate reader and analyse the data
In step 2, the 2× GSK3β (GSK3 beta)/Ser/Thr (Glycogen synthase kinase-3 beta/Serine/Threonine) 09 mixture is prepared in 50 mM HEPES (4-(2-hydroxyethyl)-1-piperazineethanesulfonic acid) pH 7.5, 0.01% BRIJ-35, 10 mM MgCl2, 1 mM EGTA (egtazic acid). The final 10 μL Kinase Reaction consists of 0.22-0.92 ng GSK3β (GSK3 beta) and 2 μM Ser/Thr 09 in 50 mM HEPES pH 7.5, 0.01% BRIJ-35, 10 mM MgCl2, 1 mM EGTA.
In step 3 the ATP Solution is diluted to a 4× working concentration in Kinase Buffer (50 mM HEPES pH 7.5, 0.01% BRIJ-35, 10 mM MgCl2, 1 mM EGTA).
In Step 6 the Development Reagent is diluted 1:512 in Development Buffer (10× Novel PKC Lipid Mix: 2 mg/mL Phosphatidyl Serine, 0.2 mg/mL DAG in 20 mM HEPES, pH 7.4, 0.3% CHAPS).
SelectScreen® Kinase Profiling Service uses XLfit from IDBS. The dose response curve is curve fit to model number 205 (sigmoidal dose-response model).

[4] = biological target: T2, PCSK9; assay: cell-based
Target sequence in this assay (Q8NBP7 31-152): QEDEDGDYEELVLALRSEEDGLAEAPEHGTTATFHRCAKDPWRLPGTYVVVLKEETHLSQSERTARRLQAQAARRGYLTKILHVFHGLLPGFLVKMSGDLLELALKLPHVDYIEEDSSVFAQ
Target sequence in this assay (Q8NBP7 153-692 V474I/G670E): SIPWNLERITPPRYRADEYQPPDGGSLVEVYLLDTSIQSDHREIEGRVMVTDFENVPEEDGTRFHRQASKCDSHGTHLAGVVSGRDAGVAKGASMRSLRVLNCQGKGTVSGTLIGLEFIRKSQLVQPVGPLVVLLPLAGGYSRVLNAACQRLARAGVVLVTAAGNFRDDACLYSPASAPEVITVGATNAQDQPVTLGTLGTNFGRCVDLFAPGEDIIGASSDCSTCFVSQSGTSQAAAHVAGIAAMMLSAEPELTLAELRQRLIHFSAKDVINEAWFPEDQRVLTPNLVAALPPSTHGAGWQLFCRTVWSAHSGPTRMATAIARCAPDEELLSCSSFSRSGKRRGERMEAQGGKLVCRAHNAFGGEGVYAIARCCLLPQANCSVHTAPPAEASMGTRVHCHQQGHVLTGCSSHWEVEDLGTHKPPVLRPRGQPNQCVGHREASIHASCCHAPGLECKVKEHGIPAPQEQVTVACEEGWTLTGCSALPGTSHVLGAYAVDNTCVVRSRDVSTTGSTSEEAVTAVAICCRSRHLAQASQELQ

GSK3b (Glycogen synthase kinase-3 beta), sequence (P49841 whole entry): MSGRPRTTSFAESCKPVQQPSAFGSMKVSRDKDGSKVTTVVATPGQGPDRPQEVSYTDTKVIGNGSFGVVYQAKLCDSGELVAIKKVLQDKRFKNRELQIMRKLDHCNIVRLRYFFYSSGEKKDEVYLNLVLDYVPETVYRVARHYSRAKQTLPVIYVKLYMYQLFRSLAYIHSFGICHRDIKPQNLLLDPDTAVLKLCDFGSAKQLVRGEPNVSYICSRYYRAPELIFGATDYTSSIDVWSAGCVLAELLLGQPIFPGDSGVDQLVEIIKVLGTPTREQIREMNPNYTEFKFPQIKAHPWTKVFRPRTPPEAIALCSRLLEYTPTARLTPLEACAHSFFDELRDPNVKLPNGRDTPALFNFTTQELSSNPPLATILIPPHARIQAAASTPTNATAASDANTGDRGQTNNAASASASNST
T1 sequence (Q12809 whole entry): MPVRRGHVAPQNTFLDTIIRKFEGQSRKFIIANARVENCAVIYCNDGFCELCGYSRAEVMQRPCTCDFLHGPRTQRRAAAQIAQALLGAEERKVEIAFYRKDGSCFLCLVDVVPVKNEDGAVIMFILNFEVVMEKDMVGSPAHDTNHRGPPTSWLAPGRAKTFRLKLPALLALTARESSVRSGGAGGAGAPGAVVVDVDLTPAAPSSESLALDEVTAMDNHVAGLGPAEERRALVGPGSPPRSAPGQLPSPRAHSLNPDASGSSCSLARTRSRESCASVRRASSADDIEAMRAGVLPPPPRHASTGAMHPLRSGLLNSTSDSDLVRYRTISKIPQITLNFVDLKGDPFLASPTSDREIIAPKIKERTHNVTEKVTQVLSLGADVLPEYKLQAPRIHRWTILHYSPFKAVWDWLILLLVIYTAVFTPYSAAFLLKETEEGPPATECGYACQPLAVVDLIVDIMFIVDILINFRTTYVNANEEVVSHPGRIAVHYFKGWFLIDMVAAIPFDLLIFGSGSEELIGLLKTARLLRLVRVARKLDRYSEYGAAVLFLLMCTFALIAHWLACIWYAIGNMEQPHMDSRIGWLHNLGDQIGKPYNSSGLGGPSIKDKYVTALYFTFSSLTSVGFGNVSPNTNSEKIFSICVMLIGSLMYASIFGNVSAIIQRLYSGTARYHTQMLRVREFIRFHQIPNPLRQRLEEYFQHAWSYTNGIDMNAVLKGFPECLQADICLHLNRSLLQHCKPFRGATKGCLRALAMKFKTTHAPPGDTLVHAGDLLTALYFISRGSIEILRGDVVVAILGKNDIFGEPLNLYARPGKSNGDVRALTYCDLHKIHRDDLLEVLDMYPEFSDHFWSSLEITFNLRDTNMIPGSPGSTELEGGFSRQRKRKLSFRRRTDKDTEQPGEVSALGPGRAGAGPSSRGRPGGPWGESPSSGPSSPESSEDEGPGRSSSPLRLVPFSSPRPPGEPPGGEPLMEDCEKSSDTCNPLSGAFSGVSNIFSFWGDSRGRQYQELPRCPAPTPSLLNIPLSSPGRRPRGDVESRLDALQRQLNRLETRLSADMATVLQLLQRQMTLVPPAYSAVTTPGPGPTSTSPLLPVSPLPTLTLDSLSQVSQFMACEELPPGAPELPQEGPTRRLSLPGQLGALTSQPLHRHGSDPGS

Cn1cccc(-c2cnc(N[C@H]3CC[C@H](Nc4nc5cccnc5[nH]4)C3)nc2)c1=O [Example 39, 3-(2-(((1S,3S)-3-((3H-Imidazo[4,5-b]pyridin-2-yl)amino)cyclopentyl)amino)pyrimidin-5-yl)-1-methylpyridin-2(1H)-one]
IC50 [1]: > 40 µM
IC50 [2]: 0.0061 µM
IC50 [3]: > 10 µM
IC50 [4]: 0.093 µM

COc1cccn(-c2ccc(N[C@H]3CC[C@H](Nc4nc5cccnc5[nH]4)C3)nc2)c1=O [Example 41, 6′-(((1S,3S)-3-((3H-Imidazo[4,5-b]pyridin-2-yl)amino)cyclopentyl)amino)-3-methoxy-2H-[1,3′-bipyridin]-2-one]
IC50 [1]: > 40 µM
IC50 [2]: 0.0035 µM
IC50 [3]: 0.066 µM
IC50 [4]: 0.186 µM

O=c1c(Cl)cccn1-c1ccc(N[C@H]2CC[C@H](Nc3nc4cccnc4[nH]3)C2)nc1 [Example 42, 6′-(((1S,3S)-3-((3H-Imidazo[4,5-b]pyridin-2-yl)amino)cyclopentyl)amino)-3-chloro-2H-[1,3′-bipyridin]-2-one]
IC50 [1]: > 40 µM
IC50 [2]: 0.0009 µM
IC50 [3]: 6.14 µM
IC50 [4]: 0.077 µM

N#Cc1ccc(=O)n(-c2ccc(N[C@H]3CC[C@H](Nc4nc5cccnc5[nH]4)C3)nc2)c1 [Example 43, 6′-(((1S,3S)-3-((3H-Imidazo[4,5-b]pyridin-2-yl)amino)cyclopentyl)amino)-2-oxo-2H-[1,3′-bipyridine]-5-carbonitrile]
IC50 [1]: > 40 µM
IC50 [2]: 0.0042 µM
IC50 [3]: > 10 µM
IC50 [4]: 0.2 µM

O=c1ccccn1-c1ccc(N[C@H]2CC[C@H](Nc3nc4cc(Cl)cnc4[nH]3)C2)nc1 [Example 47, 6′-(((1S,3S)-3-((6-Chloro-3H-imidazo[4,5-b]pyridin-2-yl)amino)cyclopentyl)amino)-2H-[1,3′-bipyridin]-2-one]
IC50 [1]: > 40 µM
IC50 [2]: 0.0016 µM
IC50 [3]: 0.331 µM
IC50 [4]: 0.064 µM

O=c1ccccn1-c1ccc(N[C@H]2CC[C@H](Nc3nc4cc(F)cnc4[nH]3)C2)nc1 [Example 48, 6′-(((1S,3S)-3-((6-Fluoro-3H-imidazo[4,5-b]pyridin-2-yl)amino)cyclopentyl)amino)-2H-[1,3′-bipyridin]-2-one]
IC50 [1]: > 40 µM
IC50 [2]: 0.0021 µM
IC50 [3]: 0.805 µM
IC50 [4]: 0.1 µM

Cc1cnc2[nH]c(N[C@H]3CC[C@H](Nc4ccc(-n5ccccc5=O)cn4)C3)nc2c1 [Example 49, 6′-(((1S,3S)-3-((6-Methyl-3H-imidazo[4,5-b]pyridin-2-yl)amino)cyclopentyl)amino)-2H-[1,3′-bipyridin]-2-one]
IC50 [1]: > 40 µM
IC50 [2]: 0.0028 µM
IC50 [3]: 5.59 µM
IC50 [4]: 0.043 µM

O=c1ccccn1-c1ccc(N[C@H]2CC[C@H](Nc3nc4c(Cl)c(Cl)cnc4[nH]3)C2)nc1 [Example 50, 6′-(((1S,3S)-3-((6,7-Dichloro-3H-imidazo[4,5-b]pyridin-2-yl)amino)cyclopentyl)amino)-2H-[1,3′-bipyridin]-2-one]
IC50 [1]: 32 µM
IC50 [2]: 0.0105 µM
IC50 [3]: 0.024 µM
IC50 [4]: 0.19 µM

O=c1ccccn1-c1ccc(N[C@H]2CC[C@H](Nc3nc4cc(OC(F)(F)F)cnc4[nH]3)C2)nc1 [Example 51, 6′-(((1S,3S)-3-((6-(Trifluoromethoxy)-3H-imidazo[4,5-b]pyridin-2-yl)amino)cyclopentyl)amino)-2H-[1,3′-bipyridin]-2-one]
IC50 [1]: 30 µM
IC50 [2]: 0.0025 µM
IC50 [3]: 1.52 µM
IC50 [4]: 0.049 µM

Cc1ncc(-c2ccc(=O)n(-c3ccc(N[C@H]4CC[C@H](Nc5nc6cc(Br)cnc6[nH]5)C4)nc3)c2)cn1 [Example 52, 6′-(((1S,3S)-3-((6-Bromo-3H-imidazo[4,5-b]pyridin-2-yl)amino)cyclopentyl)amino)-5-(2-methylpyrimidin-5-yl)-2H-[1,3′-bipyridin]-2-one]
IC50 [1]: > 40 µM
IC50 [2]: 0.0045 µM
IC50 [3]: 0.178 µM
IC50 [4]: 0.59 µM

O=c1ccccn1-c1ccc(N[C@H]2CC[C@H](Nc3nc4cc(Br)cnc4[nH]3)C2)nc1 [Example 54, 6′-(((1S,3S)-3-((6-Bromo-3H-imidazo[4,5-b]pyridin-2-yl)amino)cyclopentyl)amino)-2H-[1,3′-bipyridin]-2-one]
IC50 [1]: > 40.1 µM
IC50 [2]: 0.0007 µM
IC50 [3]: 0.306 µM
IC50 [4]: 0.041 µM

CCc1cnc2[nH]c(N[C@H]3CC[C@H](Nc4ccc(-n5ccccc5=O)cn4)C3)nc2c1 [Example 56, 6′-(((1S,3S)-3-((6-Ethyl-3H-imidazo[4,5-b]pyridin-2-yl)amino)cyclopentyl)amino)-2H-[1,3′-bipyridin]-2-one]
IC50 [1]: > 40 µM
IC50 [2]: 0.0031 µM
IC50 [3]: 3.13 µM
IC50 [4]: 0.395 µM

COc1cnc2[nH]c(N[C@H]3CC[C@H](Nc4ccc(-n5ccccc5=O)cn4)C3)nc2c1 [Example 57, 6′-(((1S,3S)-3-((6-Methoxy-3H-imidazo[4,5-b]pyridin-2-yl)amino)cyclopentyl)amino)-2H-[1,3′-bipyridin]-2-one]
IC50 [1]: > 40 µM
IC50 [2]: 0.0043 µM
IC50 [3]: 5.45 µM
IC50 [4]: 0.066 µM

CSc1cnc2[nH]c(N[C@H]3CC[C@H](Nc4ccc(-n5ccccc5=O)cn4)C3)nc2c1 [Example 59, 6′-(((1S,3S)-3-((6-(Methylthio)-3H-imidazo[4,5-b]pyridin-2-yl)amino)cyclopentyl)amino)-2H-[1,3′-bipyridin]-2-one]
IC50 [1]: > 13.5 µM
IC50 [2]: 0.0037 µM
IC50 [3]: 0.794 µM
IC50 [4]: 0.106 µM

O=c1ccccn1-c1ccc(N[C@H]2CC[C@H](Nc3nc4cc(C(F)(F)F)cnc4[nH]3)C2)nc1 [Example 62, 6′-(((1S,3S)-3-((6-(Trifluoromethyl)-3H-imidazo[4,5-b]pyridin-2-yl)amino)cyclopentyl)amino)-2H-[1,3′-bipyridin]-2-one]
IC50 [1]: > 40 µM
IC50 [2]: 0.0022 µM
IC50 [3]: 0.153 µM
IC50 [4]: 0.089 µM

O=c1c(OC(F)(F)F)cccn1-c1ccc(N[C@H]2CC[C@H](Nc3nc4cccnc4[nH]3)C2)nc1 [Example 63, 6′-(((1S,3S)-3-((3H-Imidazo[4,5-b]pyridin-2-yl)amino)cyclopentyl)amino)-3-(trifluoromethoxy)-2H-[1,3′-bipyridin]-2-one]
IC50 [1]: > 40 µM
IC50 [2]: 0.0021 µM
IC50 [3]: > 10 µM
IC50 [4]: 0.051 µM

O=c1c(C(F)(F)F)cccn1-c1ccc(N[C@H]2CC[C@H](Nc3nc4cccnc4[nH]3)C2)nc1 [Example 64, 6′-(((1S,3S)-3-((3H-Imidazo[4,5-b]pyridin-2-yl)amino)cyclopentyl)amino)-3-(trifluoromethyl)-2H-[1,3′-bipyridin]-2-one]
IC50 [1]: > 40 µM
IC50 [2]: 0.0017 µM
IC50 [3]: > 10 µM
IC50 [4]: 0.099 µM

O=c1ccc(Cl)cn1-c1ccc(N[C@H]2CC[C@H](Nc3nc4cccnc4[nH]3)C2)nc1 [Example 71, 6′-(((1S,3S)-3-((3H-Imidazo[4,5-b]pyridin-2-yl)amino)cyclopentyl)amino)-5-chloro-2H-[1,3′-bipyridin]-2-one]
IC50 [1]: > 40 µM
IC50 [2]: 0.0026 µM
IC50 [3]: 2.83 µM
IC50 [4]: 0.123 µM

COc1ccc(=O)n(-c2ccc(N[C@H]3CC[C@H](Nc4nc5cccnc5[nH]4)C3)nc2)c1 [Example 72, 6′-(((1S,3S)-3-((3H-Imidazo[4,5-b]pyridin-2-yl)amino)cyclopentyl)amino)-5-methoxy-2H-[1,3′-bipyridin]-2-one]
IC50 [1]: > 40 µM
IC50 [2]: 0.005 µM
IC50 [3]: 0.01 µM
IC50 [4]: 0.163 µM

Source: patent US20240239767A1 (AstraZeneca AB, priority 2022, published 2024)
